Patent US20170253581A1, “SUBSTITUTED HETEROCYCLES AS c-MYC TARGETING AGENTS” (Northwestern University, priority 2016, published 2017)

biological target: Myc/Max binding to DNA (Homo sapiens, UniProt P01106); experiment: Electrophoretic mobility shift assay (EMSA) of Myc/Max binding to DNA; type: biochemical; conditions: not given
Method in brief: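 Electrophoretic mobility shift assay of Myc/Max binding to DNA. Compounds tested at 200 μM, 100 μM and 50 μM.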

Myc/Max binding to DNA, sequence (P01106 whole entry): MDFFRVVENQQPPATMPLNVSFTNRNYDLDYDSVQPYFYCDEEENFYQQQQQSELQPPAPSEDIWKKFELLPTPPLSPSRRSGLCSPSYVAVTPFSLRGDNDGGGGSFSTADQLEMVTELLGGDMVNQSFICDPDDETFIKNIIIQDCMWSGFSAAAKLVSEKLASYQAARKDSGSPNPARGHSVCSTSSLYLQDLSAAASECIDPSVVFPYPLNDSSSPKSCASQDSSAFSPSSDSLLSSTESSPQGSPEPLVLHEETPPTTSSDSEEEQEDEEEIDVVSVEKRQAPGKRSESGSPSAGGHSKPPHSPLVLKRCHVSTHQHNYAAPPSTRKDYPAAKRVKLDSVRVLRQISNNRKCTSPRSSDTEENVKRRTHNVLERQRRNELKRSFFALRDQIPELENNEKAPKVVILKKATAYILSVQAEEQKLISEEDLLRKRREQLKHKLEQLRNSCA

IC50 [µM] | Compound
95 | CCc1ccc(Oc2c(-c3ccc(OCCc4cccc(C(F)(F)F)c4)cc3O)n[nH]c2C(F)(F)F)cc1 [NUCC-0176245]

same assay, conditions: EMSA, 50 uM test compound; read-out: Bound DNA (%) (50uM)

remaining activity at 50 µM [%] | Compound
102 | Oc1ccccc1C1=NNC(c2ccccc2)C1 (stereo not drawn) [compound 0200685]
100 | Cn1nc(-c2ccc(N)cc2O)cc1C(F)(F)F [compound 0200498]
91 | Cn1nc(-c2ccc(Nc3ccc(F)c(F)c3)cc2O)cc1C(F)(F)F [compound 0200560]

same assay, conditions: EMSA, 100 uM test compound; read-out: Bound DNA (%) (100uM)

Compound | remaining activity at 100 µM [%]
CCc1ccc(Oc2c(-c3ccc(OCCc4cccc(C(F)(F)F)c4)cc3O)n[nH]c2C(F)(F)F)cc1 [NUCC-0176245] | 36
Oc1ccccc1C1=NNC(c2ccccc2)C1 (stereo not drawn) [compound 0200685] | 103
Cn1nc(C(F)(F)F)c(-c2cc(C(F)(F)F)cc(C(F)(F)F)c2)c1-c1ccc(OCc2ccc(Cl)cc2)cc1O [compound 0196361] | 0
Cn1cc(-c2cn(C)nc2-c2ccc(OCc3ccc(Cl)cc3)cc2O)cn1 [compound 0198362] | 109
Cn1cc(C(F)(F)F)c(-c2cnc(OCc3ccc(Cl)cc3)cn2)n1 [compound 0200747] | 105
Cn1nc(-c2ccc(N)cc2O)cc1C(F)(F)F [compound 0200498] | 101
Cn1cc(-c2c[nH]nc2-c2ccc(OCc3ccc(Cl)cc3)cc2O)cn1 [compound 0198361] | 87
Cn1nc(-c2ccc(O)cc2O)c(-c2cc(C(F)(F)F)cc(C(F)(F)F)c2)c1C(F)(F)F [compound 0200724] | 105
Cn1nc(-c2ccc(Nc3ccc(F)c(F)c3)cc2O)cc1C(F)(F)F [compound 0200560] | 56
Cn1nc(C(F)(F)F)cc1-c1ccc(OCc2ccc(Cl)cc2)cc1N [compound 0200745] | 105
COc1cccc(COc2ccc(-c3n[nH]cc3Oc3cc(C)ccc3C)c(O)c2)c1 [compound 0196288] | 81
Cn1cc(-c2ccc(OCc3ccc(Cl)cc3)cc2N)c(C(F)(F)F)n1 [compound 0200746] | 101

Results, then the compound that gave them:

remaining activity at 100 µM [%] | Compound
13 | Cn1nc(-c2ccc(OCc3ccc(Cl)cc3)cc2O)c(Oc2ccccc2Cl)c1C(F)(F)F [compound 0196304]
106 | CCc1ccc(Oc2c(-c3ccc(OCc4ccc(Cl)cc4)cc3O)nn(C)c2CC)cc1 [compound 0196294]
76 | Cn1nc(-c2ccc(OCc3ccc(Cl)cc3)cc2O)cc1C(F)(F)F [compound 0196314]
68 | CCc1ccc(Oc2c(-c3ccc(OCCc4ccc(Cl)cc4)cc3O)nn(C)c2C(F)(F)F)cc1 [compound 0196356]
71 | Cn1nc(-c2ccc(OCc3ccc(Cl)cc3)cc2O)c(-c2ccc(C#N)cc2)c1C(F)(F)F [compound 0198393]
105 | CCc1[nH]nc(-c2ccc(OCc3ccc(Cl)cc3)cc2O)c1-c1cccc(OC)c1 [compound 0198315]
97 | Cn1nc(-c2ccc(OCc3ccc(Cl)cc3)cc2O)c(-c2ccc(Cl)c(C(F)(F)F)c2)c1C(F)(F)F [compound 0200733]
48 | Oc1cc(OCc2ccc(Cl)cc2)ccc1-c1n[nH]cc1Oc1ccccc1Cl [compound 0196343]
90 | Cc1nn(C)c(-c2ccc(OCc3ccc(Cl)cc3)cc2O)c1-c1ccccc1 [compound 0198299]
1 | Oc1cc(OCc2ccc(Cl)cc2)ccc1-c1cc(C(F)(F)F)[nH]n1 [compound 0196313]
1 | Oc1cc(OCc2ccc(Cl)cc2)ccc1-c1n[nH]c(C(F)(F)F)c1Oc1ccccc1Cl [compound 0196342]
3 | N#Cc1cccc(-c2c(-c3ccc(OCc4ccc(Cl)cc4)cc3O)n[nH]c2C(F)(F)F)c1 [compound 0198398]

same assay, conditions: EMSA, 200 uM test compound; read-out: Bound DNA (%) (200uM)

remaining activity at 200 µM [%] | Compound
20 | CCc1ccc(Oc2c[nH]nc2-c2ccc(OCc3ccc(C(F)(F)F)cc3)cc2O)cc1 [NUCC-0176244]
26 | Cc1[nH]nc(-c2ccc(OCc3ccc(F)cc3)cc2O)c1Oc1ccccc1 [NUCC-0176259]
0 | CCc1ccc(Oc2c(-c3ccc(OCCc4cccc(C(F)(F)F)c4)cc3O)n[nH]c2C(F)(F)F)cc1 [NUCC-0176245]
54 | Cc1[nH]nc(-c2ccc(OCCc3ccc(Cl)cc3)cc2O)c1Oc1ccccc1 [NUCC-0176262]
7 | CCc1ccc(Oc2c[nH]nc2-c2ccc(OCc3ccc(F)cc3)cc2O)cc1 [NUCC-0176257]
